# Measurements reported in patent EP2998294A1, “Naphthyl sulfonamide phenyl derivatives as KEAP-1 modulators for the treatment of diabetes, obesity, dyslipidemia and related disorders” (SANOFI, priority 2014, dated 2016).
# Target: T1, human Keap1 kelch domain (amino acids Ala321-Thr609) (Homo sapiens, UniProt Q14145)
# T1 construct: human Keap1 kelch domain (amino acids Ala321-Thr609)
# Experiment: Keap1-Nrf2 peptide binding assay (fluorescence polarisation)
# Settings: binding of Keap1 kelch domain (20 nM) to fluorescently labeled Nrf2 peptide (50 nM)
# Method: A fluorescence polarisation assay was used to measure binding of the human Keap1 kelch domain (amino acids Ala321-Thr609) to a fluorescently labeled peptide containing a Keap1 binding site of human Nrf2 (Alexa633-AFFAQLQLDEETGEFL; JPT Technologies, Berlin, Germany). Two microliters of test compound in reaction buffer (phosphate-buffered saline, 2 mM DL-dithiothreitol, 0.015 % (v/v) Brij-35) containing 6 % (v/v) DMSO were mixed with two microliters of the Keap1 kelch domain in reaction buffer in a black 384-well small volume microtiter plate and incubated at ambient temperature for 15 minutes. Thereafter, two microliters were added of the fluorescently labeled Nrf2 peptide in reaction buffer, and the mixture was incubated for a further 30 minutes at ambient temperature. Final concentrations of the Keap1 kelch domain and the fluorescently labeled Nrf2 peptide were 20 nM and 50 nM, respectively.
# Fluorescence polarization (FP) was measured at excitation and emission wavelengths of 635 nm and 660 nm, respectively. Positive controls for binding (two microliters of reaction buffer containing 6 % (v/v) DMSO instead of test compound in the same buffer) and negative controls (as positive controls, but without Keap1 kelch domain) were included on each microtiter plate. Data were expressed as percent-inhibition values: percentinhibition = 100⋅(1-(|FPcompound-FPnegative controle|)/(|FPpositive controle-FPnegative controle|)) [formula]
# IC50 values were determined by testing different compound concentrations and fitting the resulting percent-inhibition values to the following equation using XLFit4: percentinhibition = A + (B-A)/(1 + (((IC50)/([Compound])))^D) [formula]
# Parameter A was set to zero, pre-fit values for parameters B and D were set to 100 and 1, respectively.
# T1 sequence (Q14145 321-609): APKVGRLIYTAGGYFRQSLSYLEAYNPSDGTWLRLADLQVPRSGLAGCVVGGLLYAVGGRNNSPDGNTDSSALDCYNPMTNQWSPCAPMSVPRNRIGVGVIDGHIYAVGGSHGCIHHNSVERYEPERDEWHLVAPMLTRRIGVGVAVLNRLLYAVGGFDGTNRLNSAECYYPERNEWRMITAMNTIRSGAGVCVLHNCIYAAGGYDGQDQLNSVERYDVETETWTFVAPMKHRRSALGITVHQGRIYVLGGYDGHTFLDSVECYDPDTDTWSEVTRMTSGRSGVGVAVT
row,SMILES,IC50 [µM]
1,"O=C(O)c1cccc(-c2ccc(NS(=O)(=O)c3ccc(OC(F)(F)F)c(Cl)c3)c3ccccc23)c1 [Example 38, 3-[4-[[3-chloro-4-(trifluoromethoxy)phenyl]sulfonylamino]-1-naphthyl]benzoic acid]",6.8
2,"Cc1c(Cl)cccc1S(=O)(=O)Nc1ccc(-c2cccc(C(=O)O)c2)c2ccccc12 [Example 13, 3-[4-[(3-chloro-2-methylphenyl)sulfonylamino]-1-naphthyl]benzoic acid]",1.1
3,"O=C(O)c1cccc(-c2ccc(NS(=O)(=O)c3cc(Cl)c(Cl)s3)c3ccccc23)c1 [Example 19, 3-[4-[(4,5-dichloro-2-thienyl)sulfonylamino]-1-naphthyl]benzoic acid]",7
4,"O=C(O)c1cccc(-c2ccc(NS(=O)(=O)c3cc(F)cc(F)c3F)c3ccccc23)c1 [Example 42, 3-[4-[(2,3,5-trifluorophenyl)sulfonylamino]-1-naphthyl]benzoic acid]",6.4
5,"O=C(O)c1ccc(F)c(-c2ccc(NS(=O)(=O)c3cccc(Cl)c3Cl)c3ccccc23)c1 [Example 74, 3-[4-[(2,3-dichlorophenyl)sulfonylamino]-1-naphthyl]-4-fluoro-benzoic acid]",0.9
6,"O=C(O)c1cccc(-c2ccc(NS(=O)(=O)c3c(Cl)cc(C(F)(F)F)cc3Cl)c3ccccc23)c1 [Example 52, 3-[4-[[2,6-dichloro-4-(trifluoromethyl)phenyl]sulfonylamino]-1-naphthyl]benzoic acid]",1.4
7,"CN1CCOc2cc(S(=O)(=O)Nc3ccc(-c4cccc(C(=O)O)c4)c4ccccc34)ccc21 [Example 43, 3-[4-[(4-methyl-2,3-dihydro-1,4-benzoxazin-7-yl)sulfonylamino]-1-naphthyl]benzoic acid]",1.6
8,"O=C(O)c1cccc(-c2ccc(NS(=O)(=O)c3ccc4ncsc4c3)c3ccccc23)c1 [Example 44, 3-[4-(1,3-benzothiazol-6-ylsulfonylamino)-1-naphthyl]benzoic acid]",3.8
9,"O=C(O)c1cccc(-c2ccc(NS(=O)(=O)c3cc(Cl)cc(Cl)c3)c3ccccc23)c1 [Example 48, 3-[4-[(3,5-dichlorophenyl)sulfonylamino]-1-naphthyl]benzoic acid]",2.3

# Same assay, conditions: binding of Keap1 kelch domain (20 nM) to fluorescently labeled Nrf2 peptide (50 nM); read-out: IC50
row,IC50 [µM],SMILES
1,3.2,"CCCn1ncc(S(=O)(=O)Nc2ccc(-c3cccc(C(=O)O)c3)c3ccccc23)c1C [Example 63, 3-[4-[(5-methyl-1-propyl-pyrazol-4-yl)sulfonylamino]-1-naphthyl]benzoic acid]"
2,0.9,"O=C(O)c1cccc(-c2ccc(NS(=O)(=O)c3c(Cl)nc4sccn34)c3ccccc23)c1 [Example 60, 3-[4-[(6-chloroimidazo[2,1-b]thiazol-5-yl)sulfonylamino]-1-naphthyl]benzoic acid]"
3,5.1,"O=C(O)c1ccc(F)c(-c2ccc(NS(=O)(=O)c3cc(F)c(F)cc3Cl)c3ccccc23)c1 [Example 82, 3-[4-[(2-chloro-4,5-difluorophenyl)sulfonylamino]-1-naphthyl]-4-fluorobenzoic acid]"
4,0.5,"Cc1ccc2c(NS(=O)(=O)c3c(C)c(C)cc(C)c3C)ccc(-c3cc(C(=O)O)ccc3F)c2n1 [Example 61, 4-fluoro-3-[2-methyl-5-[(2,3,5,6-tetramethylphenyl)sulfonylamino]-8-quinolyl]benzoic acid; 2,2,2-trifluoroacetic acid]"
5,4.5,"Cc1nn(CC(C)C)cc1S(=O)(=O)Nc1ccc(-c2cccc(C(=O)O)c2)c2ccccc12 [Example 64, 3-[4-[(1-isobutyl-3-methyl-pyrazol-4-yl)sulfonylamino]-1-naphthyl]benzoic acid]"
6,1.8,"Cc1c(S(=O)(=O)Nc2ccc(-c3cccc(C(=O)O)c3)c3ccccc23)cnn1C1CCCC1 [Example 67, 3-[4-[(1-cyclopentyl-5-methyl-pyrazol-4-yl)sulfonylamino]-1-naphthyl]benzoic acid]"
7,9.7,"Cn1cc(S(=O)(=O)Nc2ccc(-c3cc(C(=O)O)ccc3F)c3ccccc23)c(C(F)(F)F)n1 [Example 78, 4-fluoro-3-[4-[[1-methyl-3-(trifluoromethyl)pyrazol-4-yl]sulfonylamino]-1-naphthyl]benzoic acid]"
8,46,"CCCCCCCCc1cc(-c2cccc(C(=O)O)c2)c2ccccc2c1NS(=O)(=O)c1c(C)c(C)cc(C)c1C [Example 59, 3-[3-octyl-4-[(2,3,5,6-tetramethylphenyl)sulfonylamino]-1-naphthyl]benzoic acid]"
9,2.6,"CCCCn1cc(S(=O)(=O)Nc2ccc(-c3cc(C(=O)O)ccc3F)c3ccccc23)c(C)n1 [Example 70, 3-[4-[(1-butyl-3-methyl-pyrazol-4-yl)sulfonylamino]-1-naphthyl]-4-fluorobenzoic acid]"
10,4.3,"CC(=O)N1CCCc2cc(S(=O)(=O)Nc3ccc(-c4cccc(C(=O)O)c4)c4ccccc34)ccc21 [Example 30, 3-[4-[(1-acetyl-3,4-dihydro-2H-quinolin-6-yl)sulfonylamino]-1-naphthyl]benzoic acid]"
11,4.6,"Cc1cc(S(=O)(=O)Nc2ccc(-c3cccc(C(=O)O)c3)c3ccccc23)c(C)o1 [Example 58, 3-[4-[(2,5-dimethyl-3-furyl)sulfonylamino]-1-naphthyl]benzoic acid]"
12,5.1,"O=C(O)c1cccc(-c2ccc(NS(=O)(=O)c3ccc4[nH]c(=O)sc4c3)c3ccccc23)c1 [Example 29, 3-[4-[(2-oxo-3H-1,3-benzothiazol-6-yl)sulfonylamino]-1-naphthyl]benzoic acid]"
13,3.6,"CC(=O)N1c2ccc(S(=O)(=O)Nc3ccc(-c4cccc(C(=O)O)c4)c4ccccc34)cc2CC1C (centres unmarked) [Example 27, 3-[4-[(1-acetyl-2-methyl-indolin-5-yl)sulfonylamino]-1-naphthyl]benzoic acid]"
14,1.4,"CCCn1ncc(S(=O)(=O)Nc2ccc(-c3cc(C(=O)O)ccc3F)c3ccccc23)c1C [Example 72, 4-fluoro-3-[4-[(5-methyl-1-propyl-pyrazol-4-yl)sulfonylamino]-1-naphthyl]benzoic acid]"
15,4.6,"Cc1nc(C)c(S(=O)(=O)Nc2ccc(-c3cccc(C(=O)O)c3)c3ccccc23)s1 [Example 24, 3-[4-[(2,4-dimethylthiazol-5-yl)sulfonylamino]-1-naphthyl]benzoic acid]"
16,3,"Cc1ccc2sc(S(=O)(=O)Nc3ccc(-c4cccc(C(=O)O)c4)c4ccccc34)cc2c1 [Example 25, 3-[4-[(5-methylbenzothiophen-2-yl)sulfonylamino]-1-naphthyl]benzoic acid]"

# The remaining lines, values behind:
row,SMILES,IC50 [µM]
1,"Cc1ccc2c(NS(=O)(=O)c3c(C)c(C)cc(C)c3C)ccc(-c3cccc(C(=O)O)c3)c2n1 [Example 7, 3-[2-methyl-5-[(2,3,5,6-tetramethylphenyl)sulfonylamino]-8-quinolyl]benzoic acid]",1.1
2,"Cc1cc(C)c(C)c(S(=O)(=O)Nc2ccc(-c3cccc(C(=O)O)c3)c3ccccc23)c1C [Example 1, 3-[4-[(2,3,5,6-tetramethyl-phenyl)-sulfonylamino]-1-naphthyl]benzoic acid]",0.2
3,"Cc1cc(C)c(C)c(S(=O)(=O)Nc2ccc(-c3cccc(C(=O)O)c3O)c3ccccc23)c1C [Example 10, 2-hydroxy-3-[4-[(2,3,5,6-tetramethylphenyl)sulfonylamino]-1-naphthyl]benzoic acid]",2.5
4,"Cc1cc(C)c(C)c(S(=O)(=O)Nc2ccc(-c3cc(C(=O)O)ccc3F)c3ccccc23)c1C [Example 5, 4-fluoro-3-[4-[(2,3,5,6-tetramethylphenyl)sulfonylamino]-1-naphthyl]benzoic acid]",0.09
